Laboratory results from ChEMBL document CHEMBL4610032, “Inhibitory effects of triarylpyrazole derivatives on LPS-induced nitric oxide and PGE2 productions in murine RAW 264.7 macrophages” (Bioorg Med Chem Lett, 2020).
pIC50: −log10 of the molar value.

Columns and labels:
[1] = Cytotoxicity against murine RAW264.7 cells assessed as cell viability at 10 uM relative to control; format: cell-based; settings: mouse, read-out: Activity
[2] = test system: RAW264.7; assay: Antiinflammatory activity against murine RAW264.7 cells assessed as inhibition of LPS-induced PGE2 production at 10 uM preincubated for 1 hr followed by LPS stimulation and measured after 24 hrs by EIA relative to control; format: functional; settings: Mus musculus
[3] = test system: RAW264.7; assay: Antiinflammatory activity against murine RAW264.7 cells assessed as inhibition of LPS-induced NO production at 10 uM preincubated for 1 hr followed by LPS stimulation and measured after 24 hrs by Griess assay relative to control; format: functional; settings: Mus musculus
[4] = test system: RAW264.7; assay: Antiinflammatory activity against murine RAW264.7 cells assessed as inhibition of LPS-induced PGE2 production preincubated for 1 hr followed by LPS stimulation and measured after 24 hrs by EIA; format: functional, cell-based; settings: Mus musculus
[5] = test system: RAW264.7; assay: Antiinflammatory activity against murine RAW264.7 cells assessed as downregulation of LPS-stimulated COX2 protein expression pretreated for 1 hr followed by LPS addition and measured after 24 hrs by Western blot analysis; format: functional, cell-based; settings: Mus musculus
[6] = test system: RAW264.7; assay: Antiinflammatory activity against murine RAW264.7 cells assessed as reduction in LPS-stimulated COX2 mRNA expression pretreated for 1 hr followed by LPS addition and measured after 4 hrs by qRT-PCR analysis; format: functional, cell-based; settings: Mus musculus
[7] = test system: RAW264.7; assay: Antiinflammatory activity against murine RAW264.7 cells assessed as inhibition of LPS-induced PGE2 production at 10 nM preincubated for 1 hr followed by LPS stimulation and measured after 24 hrs by EIA relative to control; format: functional; settings: Mus musculus
[8] = test system: RAW264.7; assay: Antiinflammatory activity against murine RAW264.7 cells assessed as inhibition of LPS-induced NO production at 40 uM preincubated for 1 hr followed by LPS stimulation and measured after 24 hrs by Griess assay relative to control; format: functional; settings: Mus musculus

Q: With `COc1ccc(C(=O)NCCCNc2cc(-c3cn(-c4ccccc4)nc3-c3cccc(OC)c3)ccn2)cc1` as the molecule, how does the viability at 10 µM [1] read?
A: The viability at 10 µM was 112%.

Q: What about the inhibition at 10 µM [2] of the same molecule?
A: The inhibition at 10 µM was 75.4%.

Q: And the inhibition at 10 µM [3]?
A: The inhibition at 10 µM was 48.8%.

Q: And the pIC50 [4]?
A: The pIC50 was 5.53.

Q: What about the inhibition [5] of the same molecule?
A: The inhibition was “Dose-dependent effect”.

Q: What about the inhibition [6] of the same molecule?
A: Its inhibition is “Dose-dependent effect”.

Q: Which inhibition at 0.01 µM [7] does the source give for `CS(=O)(=O)Nc1ccc([N+](=O)[O-])cc1OC1CCCCC1` [NS-398] here?
A: The inhibition at 0.01 µM was 59.5%.

Q: Which viability at 10 µM [1] does the source give for `O=C(NCCNc1cc(-c2cn(-c3ccccc3)nc2-c2cccc(O)c2)ccn1)c1ccccc1` here?
A: The viability at 10 µM was 105%.

Q: What about the inhibition at 10 µM [2] of the same molecule?
A: The inhibition at 10 µM was 20.9%.

Q: What about the inhibition at 10 µM [3] of the same molecule?
A: The inhibition at 10 µM was 12.2%.

Q: Which viability at 10 µM [1] does the source give for `O=C(NCCCNc1cc(-c2cn(-c3ccccc3)nc2-c2cccc(O)c2)ccn1)c1ccccc1` here?
A: The viability at 10 µM was 145%.

Q: What about the inhibition at 10 µM [2] of the same molecule?
A: The inhibition at 10 µM was 12.6%.

Q: And the inhibition at 10 µM [3]?
A: Its inhibition at 10 µM is 2.1%.

Q: What does the source list for `O=C(NCCNc1cc(-c2cn(-c3ccccc3)nc2-c2cccc(O)c2)ccn1)c1ccc(F)cc1`?
A: viability at 10 µM [1]: 127%; inhibition at 10 µM [2]: -1.9%; inhibition at 10 µM [3]: 20.4%

Q: With `O=C(NCCCNc1cc(-c2cn(-c3ccccc3)nc2-c2cccc(O)c2)ccn1)c1ccc(O)cc1` as the molecule, how does the viability at 10 µM [1] read?
A: The viability at 10 µM was 126%.

Q: What about the inhibition at 10 µM [2] of the same molecule?
A: The inhibition at 10 µM was 31.1%.

Q: And the inhibition at 10 µM [3]?
A: The inhibition at 10 µM was 39.7%.

Q: Which results are given for `O=C(NCCCNc1cc(-c2cn(-c3ccccc3)nc2-c2cccc(O)c2)ccn1)c1ccc(F)cc1`?
A: viability at 10 µM [1]: 120%; inhibition at 10 µM [2]: 63.1%; inhibition at 10 µM [3]: 32.6%; pIC50 [4]: 5.15

Q: What does the source list for `COc1cccc(-c2nn(-c3ccccc3)cc2-c2ccnc(NCCNC(=O)c3cccc(C(F)(F)F)c3)c2)c1`?
A: viability at 10 µM [1]: 125%; inhibition at 10 µM [2]: 58.1%; inhibition at 10 µM [3]: 19.1%

Q: With `COc1cccc(-c2nn(-c3ccccc3)cc2-c2ccnc(NCCNC(=O)Nc3ccccc3)c2)c1` as the molecule, how does the viability at 10 µM [1] read?
A: The viability at 10 µM was 143%.

Q: What about the inhibition at 10 µM [2] of the same molecule?
A: Its inhibition at 10 µM is 53.9%.

Q: And the inhibition at 10 µM [3]?
A: Its inhibition at 10 µM is 12.2%.

Q: Which results are given for `O=C(NCCCNc1cc(-c2cn(-c3ccccc3)nc2-c2cccc(O)c2)ccn1)c1cccc(C(F)(F)F)c1`?
A: viability at 10 µM [1]: 123%; inhibition at 10 µM [2]: 11.6%

Q: Which viability at 10 µM [1] does the source give for `COc1cccc(-c2nn(-c3ccccc3)cc2-c2ccnc(NCCNC(=O)c3ccccc3)c2)c1` here?
A: The viability at 10 µM was 132%.

Q: What about the inhibition at 10 µM [2] of the same molecule?
A: The inhibition at 10 µM was 36.2%.

Q: And the inhibition at 10 µM [3]?
A: The inhibition at 10 µM was 12.8%.

Q: For `COc1ccc(C(=O)NCCNc2cc(-c3cn(-c4ccccc4)nc3-c3cccc(OC)c3)ccn2)cc1`, which viability at 10 µM [1] is on record?
A: Its viability at 10 µM is 116%.

Q: What about the inhibition at 10 µM [2] of the same molecule?
A: The inhibition at 10 µM was 59.6%.

Q: And the inhibition at 10 µM [3]?
A: Its inhibition at 10 µM is 12.3%.

Q: What does the source list for `COc1cccc(-c2nn(-c3ccccc3)cc2-c2ccnc(NCCCNC(=O)Nc3ccccc3)c2)c1`?
A: viability at 10 µM [1]: 143%; inhibition at 10 µM [2]: 56.3%; inhibition at 10 µM [3]: 22.2%

Q: What does the source list for `COc1cccc(-c2nn(-c3ccccc3)cc2-c2ccnc(NCCNC(=O)c3ccc(F)cc3)c2)c1`?
A: viability at 10 µM [1]: 136%; inhibition at 10 µM [2]: 47.9%; inhibition at 10 µM [3]: 15.4%

Q: With `CC(=N)NCCCC[C@H](N)C(=O)O` [L-NIL] as the molecule, how does the inhibition at 40 µM [8] read?
A: The inhibition at 40 µM was 31.5%.

Q: For `COc1cccc(-c2nn(-c3ccccc3)cc2-c2ccnc(NCCCNC(=O)c3ccc(F)cc3)c2)c1`, which viability at 10 µM [1] is on record?
A: Its viability at 10 µM is 133%.

Q: And the inhibition at 10 µM [2]?
A: Its inhibition at 10 µM is 28.9%.

Q: What about the inhibition at 10 µM [3] of the same molecule?
A: Its inhibition at 10 µM is 18.6%.

Q: For `COc1cccc(-c2nn(-c3ccccc3)cc2-c2ccnc(NCCCNC(=O)c3cccc(C(F)(F)F)c3)c2)c1`, which viability at 10 µM [1] is on record?
A: The viability at 10 µM was 115%.

Q: And the inhibition at 10 µM [2]?
A: The inhibition at 10 µM was 73.8%.

Q: What about the inhibition at 10 µM [3] of the same molecule?
A: The inhibition at 10 µM was 28.8%.

Q: And the pIC50 [4]?
A: Its pIC50 is 5.25.

Q: What does the source list for `COc1cccc(-c2nn(-c3ccccc3)cc2-c2ccnc(NCCCNC(=O)Nc3cccc(C(F)(F)F)c3)c2)c1`?
A: viability at 10 µM [1]: 124%; inhibition at 10 µM [3]: 31.3%

Q: Which viability at 10 µM [1] does the source give for `COc1cccc(-c2nn(-c3ccccc3)cc2-c2ccnc(NCCCNC(=O)c3ccccc3)c2)c1` here?
A: Its viability at 10 µM is 118%.

Q: And the inhibition at 10 µM [2]?
A: Its inhibition at 10 µM is 6.1%.

Q: And the inhibition at 10 µM [3]?
A: The inhibition at 10 µM was 18.7%.

Q: With `O=C(NCCNc1cc(-c2cn(-c3ccccc3)nc2-c2cccc(O)c2)ccn1)c1cccc(C(F)(F)F)c1` as the molecule, how does the viability at 10 µM [1] read?
A: Its viability at 10 µM is 135%.

Q: What about the inhibition at 10 µM [2] of the same molecule?
A: The inhibition at 10 µM was 12.2%.

Q: And the inhibition at 10 µM [3]?
A: Its inhibition at 10 µM is 18.6%.

Q: With `COc1cccc(-c2nn(-c3ccccc3)cc2-c2ccnc(NCCCNC(=O)Nc3ccc(Cl)c(Cl)c3)c2)c1` as the molecule, how does the viability at 10 µM [1] read?
A: The viability at 10 µM was 121%.

Q: What about the inhibition at 10 µM [2] of the same molecule?
A: Its inhibition at 10 µM is 77.1%.

Q: What about the inhibition at 10 µM [3] of the same molecule?
A: Its inhibition at 10 µM is 38.6%.

Q: And the pIC50 [4]?
A: The pIC50 was 5.38.

Q: And the inhibition [5]?
A: Its inhibition is “Dose-dependent effect”.

Q: What does the source list for `COc1cccc(-c2nn(-c3ccccc3)cc2-c2ccnc(NCCNC(=O)Nc3cccc(C(F)(F)F)c3)c2)c1`?
A: viability at 10 µM [1]: 165%; inhibition at 10 µM [2]: 69.9%; inhibition at 10 µM [3]: 26.1%; pIC50 [4]: 5.29

Q: For `O=C(NCCNc1cc(-c2cn(-c3ccccc3)nc2-c2cccc(O)c2)ccn1)c1ccc(O)cc1`, which viability at 10 µM [1] is on record?
A: Its viability at 10 µM is 124%.

Q: What about the inhibition at 10 µM [2] of the same molecule?
A: Its inhibition at 10 µM is -56.4%.

Q: What about the inhibition at 10 µM [3] of the same molecule?
A: Its inhibition at 10 µM is 34.5%.

Q: Which viability at 10 µM [1] does the source give for `COc1cccc(-c2nn(-c3ccccc3)cc2-c2ccnc(NCCNC(=O)Nc3ccc(Cl)c(Cl)c3)c2)c1` here?
A: The viability at 10 µM was 129%.

Q: What about the inhibition at 10 µM [2] of the same molecule?
A: The inhibition at 10 µM was 76.1%.

Q: What about the inhibition at 10 µM [3] of the same molecule?
A: Its inhibition at 10 µM is 22%.

Q: And the pIC50 [4]?
A: Its pIC50 is 5.35.
